Experiment [1] concerns the target T1, human GIPR (Homo sapiens, UniProt P48546).
T1 construct: expressed in transfected cells; host or cells: HEK293
T1 sequence (P48546 22-466): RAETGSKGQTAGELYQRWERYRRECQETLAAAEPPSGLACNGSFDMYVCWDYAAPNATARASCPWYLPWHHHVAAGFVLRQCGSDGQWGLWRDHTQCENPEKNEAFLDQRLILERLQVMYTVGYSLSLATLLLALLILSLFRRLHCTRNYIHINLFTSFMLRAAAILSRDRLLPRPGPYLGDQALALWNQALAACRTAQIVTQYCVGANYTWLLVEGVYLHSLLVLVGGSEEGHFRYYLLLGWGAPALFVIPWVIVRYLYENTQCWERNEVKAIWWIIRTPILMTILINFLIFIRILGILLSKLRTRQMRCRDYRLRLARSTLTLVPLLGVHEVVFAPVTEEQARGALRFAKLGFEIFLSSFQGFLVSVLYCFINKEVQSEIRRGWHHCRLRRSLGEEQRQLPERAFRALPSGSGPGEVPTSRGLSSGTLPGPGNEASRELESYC
Briefly: GIPR low density cAMP accumulation in HEK293 cells. In kind it is cell-based. The protocol: (§1) Fig. 4. […] (B) Ligand-induced GTPγS binding of Gαs was performed using the GIPR-expressing membranes. […] (C) Agonist-stimulated cAMP production was measured in human GIPR expressing HEK293 cells. […] (E) Ligand-induced GTPγS binding of Gαs was performed using the GLP-1R-expressing membranes. […] (F) Agonist-stimulated cAMP production was measured in human GLP-1R-expressing HEK293 cells. […] Data presented are representative of n ≥ 3 independent experiments. Summarized data are shown in SI Appendix, Table 2. log M; log Molar.
We note that the albumin-binding propensity of fatty acid-modified peptides can confound a pharmacological comparison of molecules, given the common use of albumin and serum as nonspecific blocking agents in biological assays. Therefore, to obviate this, entirely albumin-free assays supplemented with bovine casein or bacitracin were used to prevent nonspecific binding ([10]).
Functional potency (EC50)
and efficacy (% Top) of ligands to induce Gα s -GTPγS binding and cAMP accumulation in HEK293 cells expressing GIPR were determined. The equilibrium affinity (KD) of
ligands for the immobilized ectodomain of the GIPR were quantified by surface plasmon resonance. […]
SPR data were analyzed using T200 evaluation software (Cytiva). All data are presented as geometric means with SEM and n values
according to established practices. ND, not determined. NA, not applicable.
In general terms: Changes in cAMP serve as a functional read-out for many G protein-coupled receptors.

Experiment [2] deals with T2, ECD of human GIPR (amino acids 26 to 138) (Homo sapiens, UniProt P48546).
T2 construct: human GIPR (amino acids 26 to 138); 6His; made in house; host or cells: CHO cells
T2 sequence (P48546 26-138): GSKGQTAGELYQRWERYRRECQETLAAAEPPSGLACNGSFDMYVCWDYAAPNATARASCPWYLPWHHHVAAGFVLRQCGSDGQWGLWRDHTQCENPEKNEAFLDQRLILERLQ
Briefly: GIPR extracellular domain binding by surface plasmon resonance. To be noted: equilibrium affinity, immobilized GIPR ectodomain, Biacore T200, HBS-EP pH 7.6; (SEM, n); read-out: GIPR SPR KD. The text has this: DNA encoding each protein was transfected into CHO cells for expression. After expression, the proteins were purified by affinity chromatography (HIS-Trap Ni, Cytiva) followed by size exclusion chromatography using a HiLoad 26/600 Superdex 75pg column (Cytiva) with PBS buffer. […] Surface plasmon resonance measurements were made using a Biacore T200 (Cytiva) and analyzed using T200 Evaluation Software Version 3.1. Receptor ectodomain proteins were covalently immobilized (∼250 resonance units) on Sensor Chip CM4 BR100534 using the Amine coupling Immobilization Wizard in the Biacore T200 Control Software Version 2.0.2. […]
(§2) and efficacy (% Top) of ligands to induce Gα s -GTPγS binding and cAMP accumulation in HEK293 cells expressing GIPR were determined. The equilibrium affinity (KD) of ligands for the immobilized ectodomain of the GIPR were quantified by surface plasmon resonance. […]
(§3) Functional potency (EC50) and efficacy (% Top) of ligands to induce Gα s-GTPγS binding and cAMP accumulation in HEK293 cells expressing GLP-1R were determined. The equilibrium affinity (KD) of ligands for the immobilized ectodomain of the GLP-1R were quantified by surface plasmon resonance. […]
(§4) recruitment to the GLP-1R were determined using the NanoBRET approach. The potency (EC50) and efficacy (% Top) for ligands to induce GLP-1R Internalization were determined using diffusion-enhanced resonance energy transfer. […]

Experiment [3] has as its target T3, ECD of human GLP-1R (amino acids 24 to 145) (Homo sapiens, UniProt P43220).
T3 construct: GLP-1R (amino acids 24 to 145); 6His; made in house; host or cells: CHO cells
Put plainly: GLP-1R extracellular domain binding by surface plasmon resonance.
Text: DNA encoding each protein was transfected into CHO cells for expression. After expression, the proteins were purified by affinity chromatography (HIS-Trap Ni, Cytiva) followed by size exclusion chromatography using a HiLoad 26/600 Superdex 75pg column (Cytiva) with PBS buffer. […] Surface plasmon resonance measurements were made using a Biacore T200 (Cytiva) and analyzed using T200 Evaluation Software Version 3.1. Receptor ectodomain proteins were covalently immobilized (∼250 resonance units) on Sensor Chip CM4 BR100534 using the Amine coupling Immobilization Wizard in the Biacore T200 Control Software Version 2.0.2. Running buffer was HBS-EP (10 mM Hepes, 150 mM NaCl, 3 mM EDTA, 0.05% P20 [pH 7.6]; Teknova). Concentration series for each sample were made by serial dilution in running buffer. The samples were injected for 150 sec at a 30-µL/min flow rate, followed by 300 sec of dissociation. The surface was regenerated between samples with 10 mM glycine (pH 1.7).
Fig. S10. Receptor extracellular domain (ECD) binding affinity of peptides. Purified GIPR (left column) and GLP-1R (right column) extracellular domains were immobilized to biosensor […]
mM). […]
as §2, §3, §4
relative efficacy for NanoBRET assays. SPR data were analyzed using T200 evaluation software (Cytiva). […] ND, not determined. […]
In general terms: SPR reads the build-up and loss of mass on a sensor chip optically.

Experiment [4] concerns the target GLP-1R (Homo sapiens, UniProt P43220). Put plainly: GLP-1R Gαs [35S]GTPγS binding, GLP-1R-expressing membranes. Type of experiment: biochemical. The arrangement: expressed in transfected cells; host or cells: HEK293. Here is the method: as §1
We note that the albumin-binding propensity of fatty acid-modified peptides can confound a pharmacological comparison of molecules, given the common use of albumin and serum as nonspecific blocking agents in biological assays. Therefore, to obviate this, entirely albumin-free assays supplemented with bovine casein or bacitracin were used to prevent nonspecific binding ([10]). […]
Middle Panel: The affinity (Ki) of ligands for the GLP-1R was […]
as §3
SPR data were analyzed using T200 evaluation software (Cytiva). All data are presented as geometric means with SEM and n values according to established practices. ND, not determined. NA, not applicable.
Background: Binding of GTPγS marks nucleotide exchange on a G protein.

Broadly, the EC50 is the concentration that produces a half-maximal response. What is called Kd is a measure of binding affinity in units of concentration. By koff is commonly meant the rate constant with which the complex falls apart.

Chain of GLP-1R (P43220 24-463): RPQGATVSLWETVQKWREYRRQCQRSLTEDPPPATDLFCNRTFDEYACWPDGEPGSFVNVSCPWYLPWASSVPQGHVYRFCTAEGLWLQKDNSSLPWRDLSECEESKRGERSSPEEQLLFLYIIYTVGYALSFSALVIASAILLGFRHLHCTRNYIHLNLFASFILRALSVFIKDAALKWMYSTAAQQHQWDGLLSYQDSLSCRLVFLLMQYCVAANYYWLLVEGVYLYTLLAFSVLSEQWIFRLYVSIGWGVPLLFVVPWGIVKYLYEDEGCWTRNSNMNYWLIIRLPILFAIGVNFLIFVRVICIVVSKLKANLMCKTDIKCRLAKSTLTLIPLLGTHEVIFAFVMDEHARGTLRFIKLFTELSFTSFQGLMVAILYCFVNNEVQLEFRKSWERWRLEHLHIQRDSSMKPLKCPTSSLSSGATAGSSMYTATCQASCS
T3 sequence (P43220 24-145): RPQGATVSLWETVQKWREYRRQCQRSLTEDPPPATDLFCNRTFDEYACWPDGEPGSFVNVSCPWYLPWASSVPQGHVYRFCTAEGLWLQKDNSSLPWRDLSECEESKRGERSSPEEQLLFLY

In the case of `CC[C@H](C)[C@H](NC(=O)[C@H](CC(C)C)NC(=O)[C@H](Cc1c[nH]c2ccccc12)NC(=O)[C@H](CCC(N)=O)NC(=O)[C@@H](NC(=O)[C@H](Cc1ccccc1)NC(=O)[C@H](C)NC(=O)[C@H](CCCCN)NC(=O)[C@H](CCC(N)=O)NC(=O)[C@H](C)NC(=O)[C@@H](NC(=O)[C@H](CCCCN)NC(=O)[C@H](CC(=O)O)NC(=O)[C@H](CC(C)C)NC(=O)C(C)(C)NC(=O)[C@@H](NC(=O)[C@H](CO)NC(=O)[C@H](Cc1ccc(O)cc1)NC(=O)[C@H](CC(=O)O)NC(=O)[C@H](CO)NC(=O)[C@@H](NC(=O)[C@H](Cc1ccccc1)NC(=O)[C@@H](NC(=O)CNC(=O)[C@H](CCC(=O)O)NC(=O)C(C)(C)NC(=O)[C@@H](N)Cc1ccc(O)cc1)[C@@H](C)O)[C@@H](C)O)[C@@H](C)CC)[C@@H](C)CC)C(C)C)C(=O)N[C@@H](C)C(=O)NCC(=O)NCC(=O)N1CCC[C@H]1C(=O)N[C@@H](CO)C(=O)N[C@@H](CO)C(=O)NCC(=O)N[C@@H](C)C(=O)N1CCC[C@H]1C(=O)N1CCC[C@H]1C(=O)N1CCC[C@H]1C(=O)N[C@@H](CO)C(N)=O` [Tzp∆C20], the concentration giving a half-maximal response (EC50) stood at 0.0163 nM in experiment [1] (cAMP accumulation, HEK293 cells expressing GIPR, albumin-free, geometric mean (SEM, n)) and 0.626 nM in experiment [4] (Gαs-GTPγS binding, GLP-1R-expressing membranes, albumin-free, geometric mean (SEM, n), read-out: GLP-1R GTPγS Recruitment EC50). Further, the “GIPR Low Density cAMP Top” value in experiment [1] (efficacy (% Top), normalized to GIP(1-42), (SEM)) is listed as 107 (4) %. The Kd in experiment [2] came out at 1690 nM; in experiment [3] (GLP-1R SPR KD, equilibrium affinity, immobilized GLP-1R ectodomain, Biacore T200, HBS-EP pH 7.6, (SEM, n)), 111 nM. For the same compound, the koff in experiment [3] (read-out: GLP-1R ECD kinetic constant Koff) worked out at 0.0254 s⁻¹. The “GLP-1R GTPγS Recruitment Top” value in experiment [4] (efficacy (% Top), normalized to GLP-1(7-36), (SEM)) is recorded as 74.8 (9.1) %.

Source of the values: publication PMC9060465 (Proceedings of the National Academy of Sciences of the …, 2022).
